Laboratory results taken from patent US4220755A, “Fortimicin B derivatives and process for production thereof” (Abbott Laboratories, priority 1976, dated 1980).
Values after ≈ are worked out from the molar mass of the structure shown. Where two headings read alike, the source gives them in different places.

Key:
[1] = test system: Providencia sp 164; test: MIC, agar dilution method, pH 7.2; assay type: cell-based; conditions: pH 7.2; Providencia sp 164; 7**: gentamicin, producing acetyltransferase type II; read-out: Minimum inhibition concentration (MIC)
Protocol: (§1) Measurement was carried out according to the agar dilution method, using a medium of pH 8.0, or the Japanese Antibiotic Medicament Standard, using a medium of pH 7.2 Units are in mcg/ml.
7: gentamicin, producing acetyltransferase type II.

[2] = test system: Escherichia coli R19 KY8348; test: MIC, agar dilution method, pH 7.2; assay type: cell-based; conditions: R19KY8348, pH 7.2, E. coli R19 KY8348, 4**: gentamicin, producing acetyltransferase type I, read-out: Minimum inhibition concentration (MIC)
Protocol: as §1
(§2) 4: gentamicin, producing acetyltransferase type I.

[3] = test system: Pseudomonas aeruginosa R4 KY8511; test: MIC, agar dilution method, pH 7.2; assay type: cell-based; conditions: R4KY8511, pH 7.2, P. aeruginosa R4 KY8511, 4**: gentamicin, producing acetyltransferase type I, read-out: Minimum inhibition concentration (MIC)
Protocol: as §1, §2

[4] = test system: Escherichia coli R20 KY8349; test: MIC, agar dilution method, pH 7.2; assay type: cell-based
Protocol: as §1
5: neomycin, producing phosphotransferase type I.

[5] = test system: Bacillus subtilis KY4273; test: MIC, agar dilution method, pH 8.0; assay type: cell-based; conditions: pH 8.0; Bacillus subtilis KY4273; read-out: Minimum inhibition concentration (MIC), BS
Protocol: as §1
B.S.: Bacillus subtilis KY4273

[6] = test system: Escherichia coli 76-2; test: MIC, agar dilution method, pH 7.2; assay type: cell-based; conditions: Escherichia coli, 762; pH 7.2; E. coli 76-2; 1**: gentamicin, producing adenylsynthetase; read-out: Minimum inhibition concentration (MIC)
Protocol: as §1
(§3) **1: gentamicin, producing adenylsynthetase.

[7] = test system: Klebsiella pneumoniae 3020 Y-60; test: MIC, agar dilution method, pH 7.2; assay type: cell-based; conditions: 3020Y60; pH 7.2; Klebsiella pneumoniae 3020 Y-60; 1**: gentamicin, producing adenylsynthetase; read-out: Minimum inhibition concentration (MIC)
Protocol: as §1, §3

[8] = test system: Escherichia coli 57R/W677; test: MIC, agar dilution method, pH 7.2; assay type: cell-based; conditions: 57R/W677, pH 7.2, read-out: Minimum inhibition concentration (MIC)
Protocol: as §1, §3

[9] = test system: Escherichia coli R12 Z-338; test: MIC, agar dilution method, pH 7.2; assay type: cell-based; conditions: R12Z338, pH 7.2, read-out: Minimum inhibition concentration (MIC)
Protocol: as §1, §3

[10] = test system: Klebsiella pneumoniae KY4275 ATCC10031; test: MIC, agar dilution method, pH 8.0; assay type: cell-based; conditions: ATCC10031; pH 8.0; Klebsiella pneumoniae KY4275; read-out: Minimum inhibition concentration (MIC), KP
Protocol: as §1
K.P.: Klebsiella pneumoniae KY4275 ATCC10031.

[11] = test system: Shigella sonnei KY4281 ATCC9290; test: MIC, agar dilution method, pH 8.0; assay type: cell-based
Protocol: as §1

[12] = test system: Proteus vulgaris KY4277 ATCC6897; test: MIC, agar dilution method, pH 8.0; assay type: cell-based; conditions: ATCC6897; pH 8.0; Proteus vulgaris KY4277; read-out: Minimum inhibition concentration (MIC), PV
Protocol: as §1

[13] = test system: Staphylococcus aureus KY4279 ATCC6538P; test: MIC, agar dilution method, pH 8.0; assay type: cell-based; conditions: pH 8.0, Staphylococcus aureus KY4279, read-out: Minimum inhibition concentration (MIC), SA
Protocol: as §1
S.A.: Staphylococcus aureus KY4279 ATCC6538P

[14] = test system: Eschericia coli KY4271 ATCC26; test: MIC, agar dilution method, pH 8.0; assay type: cell-based; conditions: Escherichia coli, ATCC26; pH 8.0; E. coli KY4271; read-out: Minimum inhibition concentration (MIC), EC
Protocol: as §1
E.C.: Eschericia coli KY4271 ATCC26

[15] = test system: Salmonella typhosa KY4278 ATCC9992; test: MIC, agar dilution method, pH 8.0; assay type: cell-based; conditions: Salmonella enterica, pH 8, read-out: Minimum inhibition concentration (MIC), ST
Protocol: as §1
S.T.: Salmonella typhosa KY4278 ATCC9992

[16] = test system: Pseudomonas aeruginosa R5 KY8512; test: MIC, agar dilution method, pH 7.2; assay type: cell-based; conditions: R5KY8512, pH 7.2, P. aeruginosa R5 KY8512, 6**: neomycin, producing phosphotransferase type I and type II, read-out: Minimum inhibition concentration (MIC)
Protocol: as §1
6: neomycin, producing phosphotransferase type I and type II.

[17] = test system: Escherichia coli R18 KY8321; test: MIC, agar dilution method, pH 7.2; assay type: cell-based; conditions: R18KY8321, E. coli R18 KY8321, 2**: gentamicin, producing adenylsynthetase and neomycin phosphotransferase type II, read-out: Minimum inhibition concentration (MIC)
Protocol: as §1
2: gentamicin, producing adenylsynthetase and neomycin phosphotransferase

[18] = test system: Staphylococcus a ureus 226; test: MIC, agar dilution method, pH 7.2; assay type: cell-based, Staphylococcus aureus; conditions: pH 7.2; Staphylococcus aureus 226; read-out: Minimum inhibition concentration (MIC)
Protocol: as §1

[19] = test system: Eschericihia coli 3100; test: MIC, agar dilution method, pH 7.2; assay type: cell-based, Escherichia coli
Protocol: as §1

[20] = test system: Klebsiella pneumoniae KY4274; test: MIC, agar dilution method, pH 7.2; assay type: cell-based
Protocol: as §1

[21] = test system: Proteus vulgaris JJ; test: MIC, agar dilution method, pH 7.2; assay type: cell-based
Protocol: as §1

[22] = test system: Eschericihia coli GN2411-5; test: MIC, agar dilution method, pH 7.2; assay type: cell-based; conditions: Escherichia coli
Protocol: as §1

[23] = test system: Salmonella enteritidis G-14; test: MIC, agar dilution method, pH 7.2; assay type: cell-based; conditions: Salmonella enterica; pH 7.2; Salmonella enteritidis G-14; read-out: Minimum inhibition concentration (MIC)
Protocol: as §1

[24] = test system: Pseudomonas aeruginosa BMH# 1; test: MIC, agar dilution method, pH 7.2; assay type: cell-based; conditions: pH 7.2; Pseudomonas aeruginosa BMH# 1; read-out: Minimum inhibition concentration (MIC)
Protocol: as §1

[25] = test system: Staphylococcus aureus Smith (A); test: MIC, agar dilution method, pH 7.2; assay type: cell-based; conditions: pH 7.2; Staphylococcus aureus Smith (A); read-out: Minimum inhibition concentration (MIC)
Protocol: as §1

[26] = test system: Pseudomonas aeruginosa UCLA 4184; test: MIC, agar dilution method, pH 7.2; assay type: cell-based; conditions: UCLA4184; pH 7.2; Pseudomonas aeruginosa UCLA 4184; read-out: Minimum inhibition concentration (MIC)
Protocol: as §1

[27] = test system: Staphylococcus aureus 209-P; test: MIC, agar dilution method, pH 7.2; assay type: cell-based; conditions: pH 7.2; Staphylococcus aureus 209-P; read-out: Minimum inhibition concentration (MIC)
Protocol: as §1

[28] = test system: Escherichia coli NIHTC-2; test: MIC, agar dilution method, pH 7.2; assay type: cell-based; conditions: NIHTC2; pH 7.2; Escherichia coli NIHTC-2; read-out: Minimum inhibition concentration (MIC)
Protocol: as §1

[29] = test system: Shigella sonnei ATCC9290; test: MIC, agar dilution method, pH 7.2; assay type: cell-based; conditions: read-out: Minimum inhibition concentration (MIC)
Protocol: as §1

[30] = test system: Serratia marcescens 1065; test: MIC, agar dilution method, pH 7.2; assay type: cell-based; conditions: Serratia marcescens, 1065, pH 7.2, read-out: Minimum inhibition concentration (MIC)
Protocol: as §1
(§4) 3: kanamycin, producing acetyltransferase.

[31] = test system: Escherichia coli R17 Z343; test: MIC, agar dilution method, pH 7.2; assay type: cell-based; conditions: R17Z343, pH 7.2, E. coli R17 Z343, 3**: kanamycin, producing acetyltransferase, read-out: Minimum inhibition concentration (MIC)
Protocol: as §1, §4

[32] = test system: Pseudomonas aeruginosa R9 KY8516; test: MIC, agar dilution method, pH 7.2; assay type: cell-based; conditions: R9KY8516, pH 7.2, P. aeruginosa R9 KY8516, 3**: kanamycin, producing acetyltransferase, read-out: Minimum inhibition concentration (MIC)
Protocol: as §1, §4

Row | SMILES | MIC [1] | MIC [2] | MIC [3] | MIC [5] | MIC [6] | MIC [7] | MIC [8] | MIC [9] | MIC [10] | MIC [12] | MIC [13] | MIC [14] | MIC [15] | MIC [16] | MIC [17] | MIC [18] | MIC [23] | MIC [24] | MIC [25] | MIC [26] | other results
1 | CO[C@H]1[C@@H](O)[C@H](N)[C@@H](O[C@H]2O[C@H]([C@H](C)N)CC[C@H]2N)[C@H](O)[C@@H]1N(C)CCN [Compound 15, 4-N-(2-aminoethyl)fortimicin B] | 12.5 µg/mL (≈ 31.9 µM) | > 100 µg/mL | > 100 µg/mL | 0.16 µg/mL (≈ 0.409 µM) | 3.12 µg/mL (≈ 7.97 µM) | 50 µg/mL (≈ 128 µM) | 12.5 µg/mL (≈ 31.9 µM) | 6.25 µg/mL (≈ 16 µM) | 0.63 µg/mL (≈ 1.61 µM) | 0.64 µg/mL (≈ 1.63 µM) | 0.16 µg/mL (≈ 0.409 µM) | 0.32 µg/mL (≈ 0.817 µM) | 0.32 µg/mL (≈ 0.817 µM) | 12.5 µg/mL (≈ 31.9 µM) | 3.12 µg/mL (≈ 7.97 µM) | 0.4 µg/mL (≈ 1.02 µM) | 25 µg/mL (≈ 63.9 µM) | 12.5 µg/mL (≈ 31.9 µM) | 0.78 µg/mL (≈ 1.99 µM) | 12.5 µg/mL (≈ 31.9 µM) | MIC ([4]; R20KY8349, pH 7.2, E. coli R20 KY8349, 5**: neomycin, producing phosphotransferase type I, read-out: Minimum inhibition concentration (MIC)): 3.12 µg/mL (≈ 7.97 µM); MIC ([11]; Shigella sonnei, ATCC9290, pH 8, read-out: Minimum inhibition concentration (MIC), SS): 1.25 µg/mL (≈ 3.19 µM); MIC ([19]; Escherichia coli, 3100, pH 7.2, read-out: Minimum inhibition concentration (MIC)): 6.25 µg/mL (≈ 16 µM); MIC ([20]; Klebsiella pneumoniae, KY4274, pH 7.2, read-out: Minimum inhibition concentration (MIC)): 6.25 µg/mL (≈ 16 µM); MIC ([21]; Proteus vulgaris, pH 7.2, read-out: Minimum inhibition concentration (MIC)): 6.25 µg/mL (≈ 16 µM); MIC ([22]; pH 7.2, E. coli GN2411-5, read-out: Minimum inhibition concentration (MIC)): 3.12 µg/mL (≈ 7.97 µM); MIC [27]: 0.78 µg/mL (≈ 1.99 µM); MIC [28]: 3.12 µg/mL (≈ 7.97 µM); MIC [29]: 6.25 µg/mL (≈ 16 µM); MIC [30]: 6.25 µg/mL (≈ 16 µM); MIC [31]: 0.78 µg/mL (≈ 1.99 µM); MIC [32]: 25 µg/mL (≈ 63.9 µM)
2 | CNCC[C@H](O)CN(C)[C@H]1[C@@H](O)[C@H](O[C@H]2O[C@H]([C@H](C)N)CC[C@H]2N)[C@@H](N)[C@H](O)[C@@H]1OC [Compound 28, 4-N-[(S)-4-methylamino-2-hydroxybutyl]fortimicin B] | 25 µg/mL (≈ 55.6 µM) | > 100 µg/mL | > 100 µg/mL | 0.04 µg/mL (≈ 0.089 µM) | 3.12 µg/mL (≈ 6.94 µM) | 12.5 µg/mL (≈ 27.8 µM) | 12.5 µg/mL (≈ 27.8 µM) | 6.25 µg/mL (≈ 13.9 µM) | 0.32 µg/mL (≈ 0.712 µM) | 0.32 µg/mL (≈ 0.712 µM) | 0.04 µg/mL (≈ 0.089 µM) | 0.08 µg/mL (≈ 0.178 µM) | 0.08 µg/mL (≈ 0.178 µM) | 12.5 µg/mL (≈ 27.8 µM) | 12.5 µg/mL (≈ 27.8 µM) | 0.4 µg/mL (≈ 0.89 µM) | 3.12 µg/mL (≈ 6.94 µM) | 12.5 µg/mL (≈ 27.8 µM) | 0.4 µg/mL (≈ 0.89 µM) | 50 µg/mL (≈ 111 µM) | MIC ([4]; R20KY8349, pH 7.2, read-out: Minimum inhibition concentration (MIC)): 1.25 µg/mL (≈ 2.78 µM); MIC ([11]; ATCC9290, pH 8.0, Shigella sonnei KY4281, read-out: Minimum inhibition concentration (MIC), SS): 0.63 µg/mL (≈ 1.4 µM); MIC ([19]; Escherichia coli, pH 7.2, E. coli 3100, read-out: Minimum inhibition concentration (MIC)): 12.5 µg/mL (≈ 27.8 µM); MIC ([20]; pH 7.2, Klebsiella pneumoniae KY4274, read-out: Minimum inhibition concentration (MIC)): 3.12 µg/mL (≈ 6.94 µM); MIC ([21]; pH 7.2, Proteus vulgaris JJ, read-out: Minimum inhibition concentration (MIC)): 3.12 µg/mL (≈ 6.94 µM); MIC ([22]; GN2411, pH 7.2, read-out: Minimum inhibition concentration (MIC)): 6.25 µg/mL (≈ 13.9 µM); MIC [27]: 0.78 µg/mL (≈ 1.73 µM); MIC [28]: 1.56 µg/mL (≈ 3.47 µM); MIC [29]: 6.25 µg/mL (≈ 13.9 µM); MIC [30]: 6.25 µg/mL (≈ 13.9 µM); MIC [31]: 3.12 µg/mL (≈ 6.94 µM); MIC [32]: 50 µg/mL (≈ 111 µM)
